Results taken from patent US4447419A, “Thiazole derivative, and pharmaceutical compositions containing it” (Ausonia Farmaceutici s.r.l., priority 1981, dated 1984).

Key:
[1] = tested on: lipid infiltration experimentally induced by CCl4; experiment: Intoxication by CCl4, liver lipids; format: in vivo; details: 12 hours fasting rats, oral route at different doses 2 hours before CCl4, sacrificed after 20 hours
Procedure: The study has been carried out on 12 hours fasting rats; MR 729 was administered by oral route at different doses 2 hours before carbon tetrachloride. The animals were sacrificed after 20 hours and the liver was removed for the determination of liver lipids.

[2] = target: T1, angiotensin converting enzyme (ACE) (Homo sapiens, UniProt P12821); experiment: In vitro inhibition of plasma ACE in normal human serum (method of Summary et al.); format: biochemical; parameters: ID50 (ACE inhibition): unit not given here; details: for ACE activity: control 30; for % Enzymatic activity: control 100
T1 construct: The plasma ACE has been determined by the method of Summary et al; from tissue; host or cells: normal human serum
Procedure: The plasma ACE has been determined by the method of Summary et al. (Clin. Sci. 50, 321, 1976) using histidyl-glycyl-histidine as a substrate.
Tests have been carried out with 20 ml of normal human serum.
A 0.1 M aqueous solution of MR 729 has been used.

bronchial secretion = experiment: In vivo mucolytic effect, sodium fluorescein method (Mawatari); details: rat, 250 mg/kg intraperitoneal, 5 minutes before sodium fluorescein, determined after 30 minutes
Procedure: The effect of MR 729 on bronchial secretion has been studied in the rat with the method of sodium fluorescein described by Mawatari (Kagoshima Daigakeu Igakeu Zasshi, 27, 561, 1976).
The product under study has been administered by intraperitoneal route 5 minutes before the solution of sodium fluoroscein, whose amount in the bronchial secretion has been determined after 30 minutes.

[3] = tested on: hepatic damage caused by α-naphtyl-isothiocyanate; experiment: Intoxication by α-naphtyl-isothiocyanate; format: in vivo; details: rat, contemporary oral treatment, 8 days α-naphtyl-isothiocyanate
Description: The hepatic damage caused by 8 days prolonged administration of α-naphtyl-isothiocyanate causes in the rate impairments in respect of cellular proliferation and hypertrophy of periportal spaces.

[4] = tested on: pig's lyophilized gastric mucine; experiment: In vitro mucolytic effect (method of Scheffner)
Description: It has been followed the method described by Scheffner (Ann. N.Y. Acad. Sci. 106, 298, 1963) using as a substrate pig's lyophilized gastric mucine.

[5] = target: T2, rat hepatic glutathione-peroxidase (GSH-P) (Rattus norvegicus, UniProt P04041); experiment: In vitro inhibition of glutathione-peroxidase (glutathione/NADPH/GSH-reductase/cumene hydroperoxide system); format: biochemical; details: concentration 0.025 mM
T2 construct: rat hepatic glutathione-peroxidase (GSH-P); from tissue; host or cells: rat liver
T2 sequence (P04041 1-201): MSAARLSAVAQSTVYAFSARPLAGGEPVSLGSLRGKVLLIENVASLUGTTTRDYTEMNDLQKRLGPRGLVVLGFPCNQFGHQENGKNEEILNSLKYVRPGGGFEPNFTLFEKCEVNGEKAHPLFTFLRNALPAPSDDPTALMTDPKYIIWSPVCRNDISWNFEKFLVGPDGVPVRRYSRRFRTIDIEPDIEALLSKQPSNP
Procedure: On the ground of these considerations and considering the above described pharmacological results, it has been assessed the efficacy of MR 729 in inhibiting in vitro the rat hepatic glutathione-peroxidase (GSH-P).
It has been used the system glutathione/NADPH/GSH-reductase/cumene hydroperoxide. It was shown that MR 729 inhibits of about 63% the GSH-P, at a concentration of 0.025 mM. The administration of MR 729 allows therefore a saving of endogenous glutathione and a consequent decrease of free peroxides. Compound MR 729 can be administered by oral, parenteral, rectal, aerosolic route in various forms. The compositions below are described as an example: […]

liver regeneration = experiment: Liver regeneration in partially hepathectomized rats; format: in vivo; details: treated just after operation, assessed after 4 days
Description: This study aimed to evidence whether MR 729 could affect the liver regeneration in partially hepathectomized rats.
The animals have been treated with the product under study just after their operation; the regeneration degree has been assessed after 4 days.

[6] = Acute toxicity after single intraperitoneal administration; details: mouse, in vivo, ip, mice, 95% confidence limits 307-478
Description: The toxicity of MR 729 after single administration has been studied in mice, by injecting the product at different doses by the intraperitoneal route.

[7] = tested on: time of hexobarbital induced sleep; experiment: Hexobarbital induced sleep in rats intoxicated by carbon tetrachloride; format: in vivo
Procedure: Since the length of barbiturates induced sleep can be considered directly related to the metabolism rate of these drugs by the liver, it seemed appropiate to assess the influence of MR 729 on the time of hexobarbital induced sleep in rats intoxicated by carbon tetrachloride.
MR 729 has been administered by oral route for 4 consecutive days, at different doses; the animals were then treated with CCl4 and, after 48 hours, with hexobarbital.

[8] = tested on: ethionine-induced hepatic lipidic infiltration; experiment: Intoxication by ethionine; format: in vivo; details: rat, daily oral administration during the 8 days preceding ethionine
Description: Also ethionine administration causes in the rat hepatic damages with respect to hepatocytes, occurring as a massive lipidic infiltration.

[9] = MR 729 20 μl (0.1 M aqueous solution)
[10] = MR 729 50 μl (0.1 M aqueous solution)
[11] = MR 729 100 μl (0.1 M aqueous solution)

T1 sequence (P12821 30-1232 limits assumed): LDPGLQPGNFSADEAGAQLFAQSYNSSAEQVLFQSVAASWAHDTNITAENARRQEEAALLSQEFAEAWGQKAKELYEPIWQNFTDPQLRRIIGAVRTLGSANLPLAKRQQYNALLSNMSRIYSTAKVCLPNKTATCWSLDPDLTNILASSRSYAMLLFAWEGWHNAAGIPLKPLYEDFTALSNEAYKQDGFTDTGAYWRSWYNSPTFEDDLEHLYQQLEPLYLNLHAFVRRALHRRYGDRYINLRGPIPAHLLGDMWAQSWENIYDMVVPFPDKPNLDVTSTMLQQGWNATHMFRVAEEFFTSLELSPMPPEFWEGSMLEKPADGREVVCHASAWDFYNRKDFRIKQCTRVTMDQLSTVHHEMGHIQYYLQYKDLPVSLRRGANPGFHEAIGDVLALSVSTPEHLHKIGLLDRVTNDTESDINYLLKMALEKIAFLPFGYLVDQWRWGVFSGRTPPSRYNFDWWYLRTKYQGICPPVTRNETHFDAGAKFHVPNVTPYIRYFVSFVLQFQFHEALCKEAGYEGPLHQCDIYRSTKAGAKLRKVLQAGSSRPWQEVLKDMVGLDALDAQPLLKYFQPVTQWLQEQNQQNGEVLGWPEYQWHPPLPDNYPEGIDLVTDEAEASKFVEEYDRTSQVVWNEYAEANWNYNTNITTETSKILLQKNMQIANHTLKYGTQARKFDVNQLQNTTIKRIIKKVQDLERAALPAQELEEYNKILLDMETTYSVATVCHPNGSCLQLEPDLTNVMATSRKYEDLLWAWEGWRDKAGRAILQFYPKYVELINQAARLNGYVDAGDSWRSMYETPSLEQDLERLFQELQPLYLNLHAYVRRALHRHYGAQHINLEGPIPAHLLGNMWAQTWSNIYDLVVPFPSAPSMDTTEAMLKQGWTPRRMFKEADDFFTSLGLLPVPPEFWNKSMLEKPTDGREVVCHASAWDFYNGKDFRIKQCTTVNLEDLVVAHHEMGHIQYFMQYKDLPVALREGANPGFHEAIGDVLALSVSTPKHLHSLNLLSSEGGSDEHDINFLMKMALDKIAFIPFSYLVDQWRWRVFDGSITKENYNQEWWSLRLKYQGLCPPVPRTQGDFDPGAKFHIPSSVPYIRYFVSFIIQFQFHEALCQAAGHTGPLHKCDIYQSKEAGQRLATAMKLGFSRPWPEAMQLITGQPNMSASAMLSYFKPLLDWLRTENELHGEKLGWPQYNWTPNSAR

## CC(S)C(=O)NCC(=O)N1CSCC1C(=O)O (stereo not shown) [MR 729, 3-[N-(2-mercapto-propionyl-amino-acetyl)]-tetrahydro-thiazolyl-4-carboxylic acid]
[1]
  Inhibition of liver lipid infiltration induced by CCl4: able to inhibit, in a dose-dependent way, the lipid infiltration
[2]; [9]
  ACE activity: 9 nmol/10 min/20 μl
  % Enzymatic activity: 30%
[2]; [10]
  ACE activity: 7 nmol/10 min/20 μl
  % Enzymatic activity: 23%
[2]; [11]
  ACE activity: 3 nmol/10 min/20 μl
  % Enzymatic activity: 10%
[2]; in vitro, normal human serum, 0.1 M aqueous solution of MR 729
  ID50 (ACE inhibition): 60
Bronchial secretion
  Bronchosecretolytic activity relative to carboxymethylcysteine 500 mg/kg i.p.: fivefold higher activity
[3]
  Histological examination of biliary ducts and parenchyma: structure of biliary ducts in the treated animals was practically unchanged
  Inhibition of hepatic pathology caused by α-naphtyl-isothiocyanate: inhibits the development of such pathology
[4]; pig gastric mucine, according to the considered dose
  Decrease of viscosity: 17-35%
[4]; same experimental conditions, according to the doses
  Mucolytic activity higher than equiponderant doses of N-acetyl-S-cysteine: 35-50%
[5]
  inhibition at 25 µM: ~63%
Liver regeneration
  Effect on liver regeneration: acts in a positive way on the regeneration process, without however a clear dose-effect relationship
[6]
  LD50: 395 mg/kg
[7]; oral 4 days, at highest doses
  Sleeping times: practically within normal limits
[7]; oral route for 4 consecutive days at different doses, then CCl4, hexobarbital after 48 hours
  Inhibition of CCl4-induced prolongation of hexobarbital sleeping time: inhibits the remarkable prolongation of sleeping time
[8]
  Antagonism of ethionine-induced hepatic lipidic infiltration: effective in antagonizing, with a dose-related intensity, the establishment of this pathology
